In brackets after ≈: the same amount, converted by molar mass.
Key:
[1] = tested on: K. pneumoniae; assay: MIC of carbapenem by Etest (Example 2); type: cell-based, Klebsiella pneumoniae
Experimental: (§1) All strains had previously been characterized for their β-lactamase content at the molecular level. Minimum inhibitory concentration of carbapenem were determined using the Etest® (AB bioMérieux, Solna, Sweden) and results were recorded according to US guidelines (CLSI), as updated in 2011.

[2] = tested on: M. morganii; assay: MIC of carbapenem by Etest (Example 2); type: cell-based, Morganella morganii; conditions: Plasmid mediated AmpC or chromosomal AmpC + decreased membrane permeability; M. morganii Overexpressed cephalosporinase, n=2
Experimental: as §1

[3] = tested on: E. sakazaki; assay: MIC of carbapenem by Etest (Example 2); type: cell-based; conditions: ESBL + decreased membrane permeability; E. sakazaki CTX-M-15, n=1
Experimental: as §1

[4] = tested on: K. ozonae; assay: MIC of carbapenem by Etest (Example 2); type: cell-based; conditions: K. ozonae KPC-3, n=1
Experimental: as §1

[5] = tested on: Salmonella spp.; assay: MIC of carbapenem by Etest (Example 2); type: cell-based; conditions: Salmonella spp. KPC-2, n=1
Experimental: as §1

[6] = tested on: P. stutzeri; assay: Susceptibility testing by Etest on Mueller-Hinton agar (Example 3); type: cell-based; conditions: Stutzerimonas stutzeri
Experimental: (§2) Susceptibility testing was performed using the Etest® (bioMérieux; La Balmes-les-Grottes, France) on Mueller-Hinton agar plates (Becton Dickinson, Le Pont de Chaix, France) at 37° C. and results were recorded according to US guidelines (CLSI), as updated in 2012. The breakpoints for imipenem, meropenem and doripenem are as follows; susceptibility (S)≦2, and resistance (R)≧8 μg/ml.

[7] = tested on: P. fluorescens; assay: as above; type: cell-based; conditions: Pseudomonas fluorescens
Experimental: as §2

[8] = tested on: P. putida; assay: as above; type: cell-based; conditions: Pseudomonas putida
Experimental: as §2

[9] = ESBL + decreased membrane permeability, K. pneumoniae SHV-2a, n=1
[10] = ESBL + decreased membrane permeability, K. pneumoniae SHV-28, n=1
[11] = ESBLs, K. pneumoniae CTX-M-3, n=1
[12] = ESBLs, K. pneumoniae CTX-M-14, n=1
[13] = ESBLs, K. pneumoniae CTX-M-15, n=3
[14] = Plasmid mediated AmpC or chromosomal AmpC + decreased membrane permeability, K. pneumoniae DHA-1, n=1
[15] = Plasmid mediated AmpC or chromosomal AmpC + decreased membrane permeability, K. pneumoniae DHA-2, n=1

Structure (SMILES) | MICs range [1, 9] [mg/L] | MICs range [1, 10] [mg/L] | MICs range [1, 11] [mg/L] | MICs range [1, 12] [mg/L] | MICs range [1, 13] [mg/L] | MICs range ([1]; K. pneumoniae IMP-1, n=5) [mg/L] | MICs range ([1]; K. pneumoniae IMP-8, n=2) | MICs range ([1]; K. pneumoniae NDM-4, n=1) [mg/L] | MICs range ([1]; K. pneumoniae OXA-181, n=2) [mg/L] | MICs range ([1]; K. pneumoniae VIM-19, n=1) [mg/L] | MICs range [1, 14] [mg/L] | MICs range [1, 15] [mg/L] | MICs range [2] | MICs range [3] [mg/L] | MICs range [4] [mg/L] | MICs range [5] [mg/L] | also measured
C[C@@H](O)[C@H]1C(=O)N2C(C(=O)O)=C(S[C@@H]3CN[C@H](C(=O)Nc4cccc(C(=O)O)c4)C3)[C@H](C)[C@H]12 [ERT, ertapenem] | 2 | 4 | 0.12 | 0.12 | 0.12 | 2 to 4 | 0.5 to 1^ mg/L | >32 | 2 to 4 | 16 | >32 | 0.5 | 0.12 mg/L | 1.5 | >32 | 1 | –
C[C@@H](O)[C@H]1C(=O)N2C(C(=O)O)=C(SCCN=CN)C[C@H]12 [IMP, imipenem] | 0.25 | 1 | 0.12 | 0.12 | 0.12 | 0.5 to 8 | 0.5 to 1 mg/L | >32 | 0.5 to 1 | 8 | >32 | 0.12 | 1.5 to 2^ mg/L | 0.25 | >32 | 4 | MICs range ([1]; ESBL + decreased membrane permeability, K. pneumoniae CTX-M-15, n=8): 0.25 to 8 mg/L; MICs range ([1]; K. pneumoniae KPC-3, n=3): 0.5 to 8 mg/L; MIC ([6]; P. stutzeri 13, DIM-1): > 0.032 µg/mL; MIC ([6]; P. stutzeri P511503100, VIM-2): > 0.032 µg/mL; MIC ([6]; P. stutzeri PB207, IMP-1): 0.002 µg/mL (≈ 0.00668 µM); MIC ([7]; P. fluorescens COU, VIM-2): > 0.032 µg/mL; MIC ([7]; P. fluorescens, BIC-1): > 0.032 µg/mL; MIC ([8]; CIP55, P. putida CIP 55-5, wild type, none): 0.0005 µg/mL (≈ 0.00167 µM); MIC ([8]; P. putida 9335, VIM-2): > 0.032 µg/mL; MIC ([8]; P. putida NTU 91/99, VIM-2): > 0.032 µg/mL; MIC ([8]; P. putida NTU 92/99, IMP-1): 0.001 µg/mL (≈ 0.00334 µM)
